Reference: ChEMBL document CHEMBL4483862, “Open-source discovery of chemical leads for next-generation chemoprotective antimalarials” (2018)

Tested on: Plasmodium berghei
Assay: Luciferase/luciferin-expressing antifolate-resistant parasites were used to infect a culture of HepG2 cells that were pre-incubated with compounds. Infected hepatocytes emit light due to the luciferase reaction. Assay results are presented as the percent inhibition of light emission compared to control. […]
Type: functional
Conditions: sporozoite; for IC90: read-out: LUCIFERASE INFECTION ASSAY - IC90

Structure (SMILES) | IC90 [µM] | other results
C=CCN(CC(=O)NC1CCS(=O)(=O)C1)S(=O)(=O)c1ccccc1C(F)(F)F (centres undefined) | > 10 | IC50 (FFLUC_HILL_SLOPE 0.888, FFLUC_R_SQUARED 0.174, read-out: LUCIFERASE INFECTION ASSAY - IC50): > 10 µM
COc1ccc(Oc2sccc2[N+](=O)[O-])cc1 | > 13.1 | IC50 (FFLUC_HILL_SLOPE 0.766, FFLUC_R_SQUARED 0.0624, read-out: LUCIFERASE INFECTION ASSAY - IC50): > 13.1 µM
COC(=O)c1c(C)[nH]c(C(=O)Nc2ccc(C)cn2)c1C | 2.63 | IC50 (FFLUC_HILL_SLOPE 0.774, FFLUC_R_SQUARED 0.984, PBLUC_HILL_SLOPE 0.487, PBLUC_R_SQUARED 0.641, read-out: LUCIFERASE INFECTION ASSAY - IC50): 0.0288 µM
O=C(N/N=C/c1c(-c2ccccc2)nc2sc3c(n12)CCCC3)c1ccccc1 | 0.858 | IC50 (FFLUC_HILL_SLOPE 0.805, FFLUC_R_SQUARED 0.757, PBLUC_HILL_SLOPE 1.27, PBLUC_R_SQUARED 0.855, read-out: LUCIFERASE INFECTION ASSAY - IC50): 0.153 µM
O=S(=O)(c1ccc(Cl)s1)N1CCC(C(c2ccccc2)c2ccccc2)CC1 | > 7.64 | IC50 (FFLUC_HILL_SLOPE 0.891, FFLUC_R_SQUARED 0.199, PBLUC_HILL_SLOPE 11.4, PBLUC_R_SQUARED 0.0957, read-out: LUCIFERASE INFECTION ASSAY - IC50): > 7.64 µM
CSc1c(C#N)c(-c2cc(C(C)(C)C)oc2C)nn1-c1ccc(I)cc1 | > 6.91 | IC50 (FFLUC_HILL_SLOPE 0.81, FFLUC_R_SQUARED 0.431, read-out: LUCIFERASE INFECTION ASSAY - IC50): > 6.91 µM
CC(C)CN(C(=O)c1ccc(N2CCCC2)c([N+](=O)[O-])c1)c1nc2ccccc2s1 | 0.595 | IC50 (FFLUC_HILL_SLOPE 0.859, FFLUC_R_SQUARED 0.184, HEPG2TOX_HILL_SLOPE 0.259, HEPG2TOX_R_SQUARED 0.321, PBLUC_HILL_SLOPE 3.83, PBLUC_R_SQUARED 0.838, read-out: LUCIFERASE INFECTION ASSAY - IC50): 0.336 µM
CO/N=C1\CC(C)(C)Cc2c(-c3ccn(S(=O)(=O)c4ccc(Cl)cc4)n3)sc(SC)c21 | > 6.65 | IC50 (FFLUC_HILL_SLOPE 0.891, FFLUC_R_SQUARED 0.151, read-out: LUCIFERASE INFECTION ASSAY - IC50): > 6.65 µM
CCCCNC(=O)c1c(NC(=O)c2ccc(Cl)cc2Cl)nc2ccc(C)cn12 | 1.73 | IC50 (FFLUC_HILL_SLOPE 0.85, FFLUC_R_SQUARED 0.0513, HEPG2TOX_HILL_SLOPE 0.9, HEPG2TOX_R_SQUARED 0.94, PBLUC_HILL_SLOPE 2.97, PBLUC_R_SQUARED 0.791, read-out: LUCIFERASE INFECTION ASSAY - IC50): 0.826 µM
NS(=O)(=O)c1ccc(Nc2nc(-c3cc(F)ccc3F)cs2)cc1 | > 10 | IC50 (FFLUC_HILL_SLOPE 0.845, FFLUC_R_SQUARED 0.288, PBLUC_HILL_SLOPE 13.0, 1.97, PBLUC_R_SQUARED 0.591, 0.616, read-out: LUCIFERASE INFECTION ASSAY - IC50): 8.85 µM
O=C(Nc1ccc(-c2nc3ccccc3[nH]2)cc1)C1CCC1 | > 10 | IC50 (FFLUC_HILL_SLOPE 0.826, FFLUC_R_SQUARED 0.895, PBLUC_HILL_SLOPE 0.293, PBLUC_R_SQUARED 0.545, read-out: LUCIFERASE INFECTION ASSAY - IC50): 0.543 µM
COc1cc(-c2cc(NCc3cccc(C(F)(F)F)c3)ncn2)cc(OC)c1OC | > 7.87 | IC50 (FFLUC_HILL_SLOPE 0.883, FFLUC_R_SQUARED 0.362, PBLUC_HILL_SLOPE 0.944, PBLUC_R_SQUARED 0.459, read-out: LUCIFERASE INFECTION ASSAY - IC50): 0.859 µM
COc1ccc2c(c1)C(=O)C(=O)N2Cc1ccccc1Cl | > 10.9 | IC50 (FFLUC_HILL_SLOPE 0.896, FFLUC_R_SQUARED 0.182, read-out: LUCIFERASE INFECTION ASSAY - IC50): > 10.9 µM
CC1=Nn2cc(-c3ccccc3)nc2SC1c1ccccc1 (centres undefined) | 1.79 | IC50 (FFLUC_HILL_SLOPE 0.814, FFLUC_R_SQUARED 0.91, PBLUC_HILL_SLOPE 0.719, PBLUC_R_SQUARED 0.79, read-out: LUCIFERASE INFECTION ASSAY - IC50): 0.084 µM
CCn1c(-c2ccccc2)c(C(=O)CSc2nnc(N)[nH]2)c2ccccc21 | > 10 | IC50 (FFLUC_HILL_SLOPE 0.751, FFLUC_R_SQUARED 0.0256, read-out: LUCIFERASE INFECTION ASSAY - IC50): > 10 µM
CC(C)n1c(Sc2ncc([N+](=O)[O-])s2)nc2cc(C(F)(F)F)ccc21 | 6.15 | IC50 (FFLUC_HILL_SLOPE 0.818, FFLUC_R_SQUARED 0.623, HEPG2TOX_HILL_SLOPE 9.88, HEPG2TOX_R_SQUARED 0.799, PBLUC_HILL_SLOPE 37.4, PBLUC_R_SQUARED 0.0575, read-out: LUCIFERASE INFECTION ASSAY - IC50): 5.8 µM

Structure (SMILES) | IC90 [µM] | other results
CC(=O)c1c(C)[nH]c(C(=O)Nc2nc3ccccc3[nH]2)c1C | > 10 | IC50 (FFLUC_HILL_SLOPE 0.837, FFLUC_R_SQUARED 0.9, PBLUC_HILL_SLOPE 0.352, PBLUC_R_SQUARED 0.709, read-out: LUCIFERASE INFECTION ASSAY - IC50): 0.0695 µM
Cc1cc(C(=O)CSc2nnc3n2CCCCC3)c(C)n1-c1ccccc1 | > 10 | IC50 (FFLUC_HILL_SLOPE 0.849, FFLUC_R_SQUARED 0.0339, PBLUC_HILL_SLOPE 12.7, PBLUC_R_SQUARED 0.127, read-out: LUCIFERASE INFECTION ASSAY - IC50): 9.31 µM
Cc1c(C)n(CCCO)c2ncn3nc(COc4ccccc4)nc3c12 | 0.36 | IC50 (FFLUC_HILL_SLOPE 0.782, FFLUC_R_SQUARED 0.957, PBLUC_HILL_SLOPE 0.808, PBLUC_R_SQUARED 0.882, read-out: LUCIFERASE INFECTION ASSAY - IC50): 0.0238 µM
Nc1ncnc(N/N=C/c2ccc(C3=CCCC3)s2)c1[N+](=O)[O-] | > 10 | IC50 (FFLUC_HILL_SLOPE 0.804, FFLUC_R_SQUARED 0.918, PBLUC_HILL_SLOPE 0.696, PBLUC_R_SQUARED 0.659, read-out: LUCIFERASE INFECTION ASSAY - IC50): 0.463 µM
Cc1ccc(C)c(-n2c(SC(C)c3nc(N)nc(N(C)C)n3)nc3ccccc3c2=O)c1 (centres undefined) | > 10 | IC50 (FFLUC_HILL_SLOPE 0.719, FFLUC_R_SQUARED 0.145, PBLUC_HILL_SLOPE 15.9, PBLUC_R_SQUARED 0.219, read-out: LUCIFERASE INFECTION ASSAY - IC50): 9.47 µM
C#Cc1cccc(NC(=O)c2ccc(C(C)(C)C)s2)c1 | 8.24 | IC50 (FFLUC_HILL_SLOPE 0.741, FFLUC_R_SQUARED 0.211, PBLUC_HILL_SLOPE 2.38, PBLUC_R_SQUARED 0.594, read-out: LUCIFERASE INFECTION ASSAY - IC50): 3.28 µM
CS(=O)(=O)c1ccccc1NC(=O)COC(=O)c1cccnc1N | > 10 | IC50 (FFLUC_HILL_SLOPE 0.757, FFLUC_R_SQUARED 0.634, read-out: LUCIFERASE INFECTION ASSAY - IC50): > 10 µM
Cc1c(OCC(=O)Nc2ccccc2)ccc2c1OC(C)(C)C=C2 | 0.79 | IC50 (FFLUC_HILL_SLOPE 0.847, FFLUC_R_SQUARED 0.632, PBLUC_HILL_SLOPE 1.69, PBLUC_R_SQUARED 0.702, read-out: LUCIFERASE INFECTION ASSAY - IC50): 0.216 µM
N#C/C(=C\Nc1cc(C(F)(F)F)cc(C(F)(F)F)c1)S(=O)(=O)c1ccccc1 | > 7.85 | IC50 (FFLUC_HILL_SLOPE 0.883, FFLUC_R_SQUARED 0.592, HEPG2TOX_HILL_SLOPE 1.61, HEPG2TOX_R_SQUARED 0.979, PBLUC_HILL_SLOPE 2.79, PBLUC_R_SQUARED 0.181, read-out: LUCIFERASE INFECTION ASSAY - IC50): 4.35 µM
O=C(NCCC1=CCCCC1)c1cccc(N2CCCC2=O)c1 | > 10 | IC50 (FFLUC_HILL_SLOPE 0.738, FFLUC_R_SQUARED 0.473, PBLUC_HILL_SLOPE 0.427, PBLUC_R_SQUARED 0.183, read-out: LUCIFERASE INFECTION ASSAY - IC50): > 10 µM
CCc1cn(Cc2ccccc2)c[n+]1Cc1ccccc1 | > 10.5 | IC50 (FFLUC_HILL_SLOPE 0.817, FFLUC_R_SQUARED 0.751, PBLUC_HILL_SLOPE 3.02, PBLUC_R_SQUARED 0.429, read-out: LUCIFERASE INFECTION ASSAY - IC50): 5.71 µM
CC(C)OCCCn1c(S/C=C/c2ccc([N+](=O)[O-])o2)nc2ccccc2c1=O | > 10 | IC50 (FFLUC_HILL_SLOPE 0.75, FFLUC_R_SQUARED 0.0694, read-out: LUCIFERASE INFECTION ASSAY - IC50): > 10 µM
CSc1ccc(C2=NNC(=NC3CC3)SC2)cc1 | > 10 | IC50 (FFLUC_HILL_SLOPE 0.857, FFLUC_R_SQUARED 0.948, PBLUC_HILL_SLOPE 0.604, PBLUC_R_SQUARED 0.771, read-out: LUCIFERASE INFECTION ASSAY - IC50): 0.467 µM
Cc1oc2[nH]cnc(=O)c2c1C(=O)Nc1ccccc1Cc1ccccc1 | > 10 | IC50 (FFLUC_HILL_SLOPE 0.892, FFLUC_R_SQUARED 0.572, PBLUC_HILL_SLOPE 0.52, PBLUC_R_SQUARED 0.732, read-out: LUCIFERASE INFECTION ASSAY - IC50): 2.73 µM
COc1cc(/C=N/NC(=S)Nc2ccccc2OC)ccc1O | > 9.96 | IC50 (FFLUC_HILL_SLOPE 0.707, FFLUC_R_SQUARED 0.581, PBLUC_HILL_SLOPE 0.242, PBLUC_R_SQUARED 0.281, read-out: LUCIFERASE INFECTION ASSAY - IC50): > 9.96 µM
CCOC(=O)c1c(-c2ccccc2)oc2ccc(NS(=O)(=O)c3ccc(CC)cc3)cc12 | 9.53 | IC50 (FFLUC_HILL_SLOPE 0.825, FFLUC_R_SQUARED 0.206, HEPG2TOX_HILL_SLOPE 3.18, HEPG2TOX_R_SQUARED 0.941, PBLUC_HILL_SLOPE 22.5, PBLUC_R_SQUARED 0.586, read-out: LUCIFERASE INFECTION ASSAY - IC50): 8.65 µM
